Measurements from patent publication US7501430B2 (ArQule, Inc., priority 2006, dated 2009).

What follows are compounds tested against T1, mutant B-RAF (Homo sapiens, UniProt P15056, V600E) (assay: RAF biochemical assay (MEK-1 phosphorylation, anti-phospho MEK1/2 detection)). Conditions: @ 2 uM.
T1 construct: purchased Upstate (Charlottesville, Va.)
How it was run: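 Detection is by ELISA: after a 30 min room-temperature reaction, plate-captured GST-MEK-1 is probed with anti-phospho MEK1/2, then an AP-tagged secondary antibody with fluorescent Attophos read-out.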

T1 sequence (P15056 whole entry V600E): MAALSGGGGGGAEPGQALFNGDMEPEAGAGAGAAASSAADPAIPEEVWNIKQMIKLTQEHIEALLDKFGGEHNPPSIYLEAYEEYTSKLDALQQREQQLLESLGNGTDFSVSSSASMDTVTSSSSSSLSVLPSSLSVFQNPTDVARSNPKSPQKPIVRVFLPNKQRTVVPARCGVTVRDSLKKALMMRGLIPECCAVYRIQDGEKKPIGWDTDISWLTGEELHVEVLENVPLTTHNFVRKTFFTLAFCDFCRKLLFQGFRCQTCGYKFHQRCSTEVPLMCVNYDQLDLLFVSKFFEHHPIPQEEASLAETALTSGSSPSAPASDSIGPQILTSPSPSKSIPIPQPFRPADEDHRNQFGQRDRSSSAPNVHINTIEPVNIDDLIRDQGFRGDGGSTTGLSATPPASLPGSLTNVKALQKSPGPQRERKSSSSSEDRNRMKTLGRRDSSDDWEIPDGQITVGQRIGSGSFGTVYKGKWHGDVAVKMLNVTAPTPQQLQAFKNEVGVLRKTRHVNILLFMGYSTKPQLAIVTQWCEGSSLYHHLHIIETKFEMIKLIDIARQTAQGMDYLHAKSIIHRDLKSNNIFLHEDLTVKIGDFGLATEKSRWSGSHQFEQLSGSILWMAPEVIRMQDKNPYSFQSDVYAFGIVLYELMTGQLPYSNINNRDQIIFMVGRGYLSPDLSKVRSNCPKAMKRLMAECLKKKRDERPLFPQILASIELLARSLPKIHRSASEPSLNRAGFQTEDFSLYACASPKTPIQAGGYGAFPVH

Row | inhibition at 2 µM [%] | SMILES
1 | 9 | O=[N+]([O-])c1ccc(-c2nc3sccn3c2-c2ccnc(NC3CCNCC3)n2)cc1 [Example 247, 4-[6-(4-nitrophenyl)imidazo[2,1-b][1,3]thiazol-5-yl]-N-piperidin-4-ylpyrimidin-2-amine]

Same assay, conditions: @ 3 uM

Row | inhibition at 3 µM [%] | SMILES
2 | 52 | O=S(=O)(c1ccc(C(F)(F)F)cc1)N1CCC(Nc2nccc(-c3c(-c4ccc(F)cc4)nc4occn34)n2)CC1 [Example 239, 4-[6-(4-fluorophenyl)imidazo[2,1-b][1,3]oxazol-5-yl]-N-(1-{[4-(trifluoromethyl)phenyl]sulfonyl}piperidin-4-yl)pyrimidin-2-amine]

Same assay, conditions: @ 5 uM

Row | inhibition at 5 µM [%] | SMILES
3 | 85 | O=S(=O)(c1cccc(F)c1)N1CCC(Nc2nccc(-c3c(-c4ccc(F)cc4)nc4occn34)n2)CC1 [Example 237, 4-[6-(4-fluorophenyl)imidazo[2,1-b][1,3]oxazol-5-yl]-N-{1-[(3-fluorophenyl)sulfonyl]piper-idin-4-yl}pyrimidin-2-amine]

Same assay, conditions: @ 10 uM; read-out: Mutant B-RAF % inhibition

Row | inhibition at 10 µM [%] | SMILES
4 | 40 | CC(=O)Nc1nc(C)c(S(=O)(=O)N2CCC(Nc3nccc(-c4c(-c5ccc(F)cc5)nc5occn45)n3)CC2)s1 [Example 228, N-(5-{(4-({4-[6-(4-fluorophenyl)imidazo[2,1-b][1,3]oxazol-5-yl]pyrimidin-2-yl}amino)piperidin-1-yl]sulfonyl}-4-methyl-1,3-thiazol-2-yl)acetamide]
5 | 50 | Cc1nc(C)c(S(=O)(=O)N2CCC(Nc3nccc(-c4c(-c5ccc(F)cc5)nc5occn45)n3)CC2)s1 [Example 230, N-{1-[(2,4-dimethyl-1,3-thiazol-5-yl)sulfonyl]piperidin-4-yl)-4-[6-(4-fluorophenyl)imidazo[2,1-b][1,3]oxazol-5-yl]pyrimidin-2-amine]
6 | 56 | CCN(C)C(=O)N1CCC(Nc2nccc(-c3c(-c4ccc(F)cc4)nc4sccn34)n2)CC1 [Example 232, N-ethyl-4-({4-[6-(4-fluorophenyl)imidazo[2,1-b][1,3]thiazol-5-yl]pyrimidin-2-yl}amino)-N-methylpiperidine-1-carboxamide]
7 | 53 | COc1cccc(-c2nc3sccn3c2-c2ccnc(NC3CCN(C(=O)NCc4ccccc4)CC3)n2)c1 [Example 233, N-benzyl-4-({4-[6-(3-methoxyphenyl)imidazo[2,1-b][1,3]thiazol-5-yl]pyrimidin-2-yl}amino)piperidine-1-carboxamide]
8 | 30 | Cc1ccccc1S(=O)(=O)N1CCC(Nc2nccc(-c3c(-c4ccc(F)cc4)nc4occn34)n2)CC1 [Example 235, 4-[6-(4-fluorophenyl)imidazo[2,1-b][1,3]oxazol-5-yl]-N-{1-[(2-methylphenyl)sulfonyl]piperidin-4-yl}pyrimidin-2-amine]
9 | 30 | O=S(=O)(c1c(F)cccc1F)N1CCC(Nc2nccc(-c3c(-c4ccc(F)cc4)nc4occn34)n2)CC1 [Example 236, N-{1-[(2,6-difluorophenyl)sulfonyl]piperidin-4-yl}-4-[6-(4-fluorophenyl)imidazo[2,1-b][1,3]oxazol-5-yl]pyrimidin-2-amine]
10 | 44 | N#Cc1ccc(S(=O)(=O)N2CCC(Nc3nccc(-c4c(-c5ccc(F)cc5)nc5occn45)n3)CC2)cc1 [Example 240, 4-{[4-({4-[6-(4-fluorophenyl)imidazo[2,1-b][1,3]oxazol-5-yl]pyrimidin-2-yl}amino)piperidin-1-yl]sulfonyl}benzonitrile]
11 | 67 | Cc1cn2c(-c3ccnc(NC4CCN(C(=O)NCc5ccco5)CC4)n3)c(-c3ccc(F)cc3)nc2s1 [Example 242, 4-({4-[6-(4-fluorophenyl)-2-methylimidazo[2,1-b][1,3]thiazol-5-yl]pyrimidin-2-yl}amino)-N-(2-furylmethyl)piperidine-1-carboxamide]
12 | 76 | O=C(NCc1ccco1)N1CCC(Nc2nccc(-c3c(-c4ccc(F)c(F)c4)nc4sccn34)n2)CC1 [Example 243, 4-({4-[6-(3,4-difluorophenyl)imidazo[2,1-b][1,3]thiazol-5-yl]pyrimidin-2-yl}amino)-N-(2-furylmethyl)piperidine-1-carboxamide]
13 | 47 | c1ccc2cc(-c3nc4sccn4c3-c3ccnc(NC4CCNCC4)n3)ccc2c1 [Example 244, 4-[6-(2-naphthyl)imidazo[2,1-b][1,3]thiazol-5-yl]-N-piperidin-4-ylpyrimidin-2-amine]
14 | 58 | c1cc(-c2c(-c3ccc4c(c3)OCCO4)nc3sccn23)nc(NC2CCNCC2)n1 [Example 249, 4-[6-(2,3-dihydro-1,4-benzodioxin-6-yl)imidazo[2,1-b][1,3]thiazol-5-yl]-N-piperidin-4-ylpyrimidin-2-amine]

Same assay, conditions: read-out: Mutant B-RAF IC50

Row | IC50 [nM] | SMILES
15 | 1370 | O=C(O)c1ccc(S(=O)(=O)N2CCC(Nc3nccc(-c4c(-c5ccc(F)cc5)nc5occn45)n3)CC2)cc1 [Example 229, 4-{[4-({4-[6-(4-fluorophenyl)imidazo[2,1-b][1,3]oxazol-5-yl]pyrimidin-2-yl}amino)piperidin-1-yl]sulfonyl)benzoic acid]
16 | 408 | COc1cccc(S(=O)(=O)N2CCC(Nc3nccc(-c4c(-c5ccc(F)cc5)nc5occn45)n3)CC2)c1 [Example 231, 4-[6-(4-fluorophenyl)imidazo[2,1-b][1,3]oxazol-5-yl]-N-{1-[(3-methoxyphenyl)sulfonyl]piperidin-4-yl}pyrimidin-2-amine]
17 | 825 | COc1cccc(-c2nc3sccn3c2-c2ccnc(NC3CCN(C(=O)NCc4ccco4)CC3)n2)c1 [Example 234, N-(2-furylmethyl)-4-({4-[6-(3-methoxyphenyl)imidazo[2,1-b][1,3]thiazol-5-yl]pyrimidin-2-yl}amino)piperidine-1-carboxamide]
18 | > 10000 | O=S(=O)(c1ccc(Oc2ccccc2)cc1)N1CCC(Nc2nccc(-c3c(-c4ccc(F)cc4)nc4occn34)n2)CC1 [Example 238, 4-[6-(4-fluorophenyl)imidazo[2,1-b][1,3]oxazol-5-yl]-N-{1-[(4-phenoxyphenyl)sulfonyl]piper-idin-4-yl}pyrimidin-2-amine]
19 | 2530 | Cc1cn2c(-c3ccnc(NC4CCN(C(=O)NCc5ccccc5)CC4)n3)c(-c3ccc(F)cc3)nc2s1 [Example 241, N-benzyl-4-({4-[6-(4-fluorophenyl)-2-methylimidazo[2,1-b][1,3]thiazol-5-yl]pyrimidin-2-yl}amino)piperidine-1-carboxamide]
20 | 2460 | COc1cccc(-c2nc3sccn3c2-c2ccnc(NC3CCN(C(=O)Cc4ccc(N(C)C)cc4)CC3)n2)c1 [Example 245, N-(1-{[4-(dimethylamino)phenyl]acetyl}piperidin-4-yl)-4-[6-(3-methoxyphenyl)imidazo[2,1-b][1,3]thiazol-5-yl]pyrimidin-2-amine]
21 | > 10000 | Cc1ccc(-c2nc3scc(C)n3c2-c2ccnc(NC3CCNCC3)n2)cc1 [Example 246, 4-[3-methyl-6-(4-methylphenyl)imidazo[2,1-b][1,3]thiazol-5-yl]-N-piperidin-4-ylpyrimidin-2-amine]
22 | 931 | Cc1nc(S(=O)(=O)N2CCC(Nc3nccc(-c4c(-c5ccc(F)cc5)nc5occn45)n3)CC2)cn1C [Example 248, N-{1-[(1,2-dimethyl-1H-imidazol-4-yl)sulfonyl]piperidin-4-yl}-4-[6-(4-fluorophenyl)imidazo[2,1-b][1,3]oxazol-5-yl]pyrimidin-2-amine]
